From US20220249599A1, “TREATMENT OF IMPLANTS WITH ENGINEERED ANTIMICROBIAL AMPHIPHILIC PEPTIDES” (priority 2018, published 2022) come the findings set out here.

Ends that are not written are not given here.

Assay [1] concerns P. aeruginosa strains (PAO1 and 2 clinical isolates). Format: cell-based. To be noted: three P. aeruginosa strains, 0.5×MIC exposure. The source says:
Each antibiotic was compared for their propensity to select for bacterial resistance phenotypes in vitro.

In assay [2] the test system is S. aureus. Briefly: Periprosthetic joint infection mouse model, implant biofilm CFU burden. The conditions noted are these: intraperitoneal delivery, versus untreated control mice. It counts as in vivo. As for the experimental part:
Periprosthetic joint infection was modeled in a mouse by placing an intra-articular K-wire through the medullary canal of the proximal femur followed by intra-articular inoculation with S. aureus. Animals were treated systemically with an intraperitoneal delivery of cefazolin, rifampin, or the exemplary peptide of SEQ ID NO:1. Intraperitoneal delivery was chosen due to technical difficulties associated with intravenous delivery. Implant sonication and proximal femur homogenate were used to quantify viable bacteria.

In assay [3] the test system is Acinetobacter baumannii ATCC BAA-1797 (MDR). In words: microbe, parasite or virus in culture. It counts as cell-based. The conditions noted are these: ATCC BAA-1797. Here is the method:
(§1) Each peptide was formulated in PBS buffer prior to testing. Peptides of SEQ ID NO:5 and SEQ ID NO:8 were brought up in 100% DMSO with 0.002% polysorbate-80 at 1.28 mg/mL (40× the highest final test concentration of 32 mcg/mL). Final test concentration of DMSO was 2.5% in the assay at the first dilution for those two compounds.
(§2) Mueller Hinton II broth (MHB II; BD; Lot Nos. 6258541 and 7143896) was used for MIC testing of aerobic organisms. 0.002% polysorbate 80 (P80) was added to the test medium.
(§3) MIC values were determined using a broth microdilution procedure described by CLSI (1, 3). Automated liquid handlers (Multidrop 384, Labsystems, Helsinki, Finland; Biomek 2000 and Biomek FX, Beckman Coulter, Fullerton Calif.) were used to conduct serial dilutions and liquid transfers.
(§4) To prepare the drug mother plates, which would provide the serial peptide dilutions for the replicate daughter plates, the wells of columns 2-12 of standard 96-well microdilution plates (Costar 3795) were filled with 150 µl of the designated diluent for each row of peptide.
(§5) The test articles and comparator compounds ([…] at 40× the highest concentration to be tested) were dispensed into the appropriate wells in column 1. The Biomek 2000 was then used to make 2-fold serial dilutions in the mother plates from column 1 through column 11. The wells of Column 12 contained no drug and served as the organism growth control wells for the assay.
(§6) The daughter plates were loaded with 185 μL per well of MHB II using the Multidrop 384. The daughter plates were completed on the Biomek FX instrument which transferred 5 uL of peptide solution from each well of a mother plate to the corresponding well of each daughter plate in a single step. A standardized inoculum of each test organism was prepared per CLSI methods. The inoculum for each organism was dispensed into sterile reservoirs divided by length (Beckman Coulter), and the Biomek 2000 was used to inoculate the plates. Daughter plates were placed on the Biomek 2000 work surface in reverse orientation so that inoculation took place from low to high drug concentration.
(§7) Plates were stacked 3-4 high, covered with a lid on the top plate, placed in plastic bags, and incubated at 35° C. for 16 to 20 hrs. Following incubation, the microplates were removed from the incubator and viewed from the bottom using a plate viewer. […] The MIC was read and recorded as the lowest concentration of peptide that inhibited visible growth of the organism.

Assay [4] deals with Staphylococcus aureus ATCC 29213 (MSSA; QC). It counts as cell-based. The conditions noted are these: ATCC 29213. As for the experimental part: as §1, §2, §3, §4, §5, §6, §7
Assay [5] deals with Streptococcus pyogenes ATCC 49399. It counts as cell-based. To be noted: ATCC 49399. Here is the method: as §1, §2, §3, §4, §5, §6, §7
Assay [6] relates to Staphylococcus aureus ATCC 43300 (MRSA). Format: cell-based. To be noted: ATCC 43300. As for the experimental part: as §1, §2, §3, §4, §5, §6, §7
Assay [7] has as its system Enterococcus faecium ATCC 51559 (VRE). It counts as cell-based. To be noted: ATCC 51559. Here is the method: as §1, §2, §3, §4, §5, §6, §7
Assay [8] concerns Acinetobacter baumannii ATCC 19606 (non-MDR). Format: cell-based. The conditions noted are these: ATCC 19606. As for the experimental part:
as §1, §2, §3, §4, §5, §6, §7

Assay [9] concerns Staphylococcus aureus NRS382 (USA100; HA-MRSA). It counts as cell-based. To be noted: USA100. Here is the method: as §1, §2, §3, §4, §5, §6, §7
In assay [10] the test system is Streptococcus pneumoniae ATCC 49619 (QC). Format: cell-based. To be noted: ATCC 49619. As for the experimental part:
as §1, §2, §3, §4, §5, §6, §7

Assay [11] deals with Escherichia coli ATCC 25922 (QC). It counts as cell-based. The conditions noted are these: ATCC 25922. Here is the method: as §1, §2, §3, §4, §5, §6, §7
The test system of assay [12] is Pseudomonas aeruginosa ATCC BAA-2109 (MDR). Format: cell-based. The conditions noted are these: ATCC BAA-2109. As for the experimental part: as §1, §2, §3, §4, §5, §6, §7
Assay [13] has as its system Klebsiella pneumoniae ATCC BAA-1705 (KPC). Format: cell-based. To be noted: ATCC BAA-1705. As for the experimental part:
as §1, §2, §3, §4, §5, §6, §7

The test system of assay [14] is Enterococcus faecalis ATCC 700802 (V583 VRE). It counts as cell-based. The conditions noted are these: ATCC 700802. As for the experimental part: as §1, §2, §3, §4, §5, §6, §7
The subject of assay [15] is Escherichia coli ATCC BAA-2471 (NDM-1). It counts as cell-based. To be noted: ATCC BAA-2471. As for the experimental part:
as §1, §2, §3, §4, §5, §6, §7

For assay [16], the system named is Escherichia coli ATCC 35218 (ESBL). Format: cell-based. To be noted: ATCC 35218. As for the experimental part:
as §1, §2, §3, §4, §5, §6, §7

Assay [17] relates to Enterococcus faecalis ATCC 29212 (VSE; QC). It counts as cell-based. To be noted: ATCC 29212. As for the experimental part: as §1, §2, §3, §4, §5, §6, §7
Assay [18] has as its system Pseudomonas aeruginosa ATCC 27853 (non-MDR; QC). Format: cell-based. The conditions noted are these: ATCC 27853. As for the experimental part:
as §1, §2, §3, §4, §5, §6, §7

With `CO[C@H]1/C=C/O[C@@]2(C)Oc3c(C)c(O)c4c(O)c(c(/C=N/N5CCN(C)CC5)c(O)c4c3C2=O)NC(=O)/C(C)=C\C=C\[C@H](C)[C@H](O)[C@@H](C)[C@@H](O)[C@@H](C)[C@H](OC(C)=O)[C@@H]1C` [Rifampin], in assay [1], the “Time to development of resistance (fold MIC>10)” value is not above 3 days. Moreover, in assay [2], the “Reduction of implant biofilm CFU burden (sonicate culture)” value is listed as “comparable reduction in biofilms sonicate as compared to SEQ ID NO:1”.
As to IRRIIRRIRRIIRRIRRIIRR [SEQ ID NO: 4], the MIC in assay [3] was 8 µg/mL; in assay [4] it was 8 µg/mL; in [5], 16 µg/mL; in assay [6] it was 4 µg/mL; in assay [7], 4 µg/mL; in assay [8], 8 µg/mL. The MIC in [9] was found to be 4 µg/mL; in assay [10], 16 µg/mL; in [11], 4 µg/mL; in [12], 4 µg/mL; in assay [13], 32 µg/mL; in assay [14], 8 µg/mL. Also, the MIC in [15] is 4 µg/mL; in assay [16], 8 µg/mL; in assay [17] it was 8 µg/mL; in assay [18], 8 µg/mL.
IRRRIRRIRRRIRRIRRRIRR [SEQ ID NO: 3]: the MIC in assay [3] stood at 16 µg/mL; in assay [4], 8 µg/mL; in [5] it was 16 µg/mL; in [6], 8 µg/mL; in [7], 4 µg/mL; in [8], 8 µg/mL. Further, the MIC in [9] is 8 µg/mL; in [10], 32 µg/mL; in [11], 4 µg/mL; in assay [12], 2 µg/mL; in [13], 32 µg/mL; in [14], more than 32 µg/mL. The MIC in assay [15] stood at 4 µg/mL; in [16] it was 4 µg/mL; in assay [17], 32 µg/mL; in assay [18], 4 µg/mL.
As for IRRRRRRIRRRRRR [SEQ ID NO: 2], the MIC in assay [3] was more than 32 µg/mL; in assay [4] it was 16 µg/mL; in [5], 32 µg/mL; in [6] it was 16 µg/mL; in assay [7] it was 16 µg/mL; in assay [8], 32 µg/mL. Also, the MIC was 8 µg/mL in assay [9]; more than 32 µg/mL in assay [10]; 16 µg/mL in assay [11]; 8 µg/mL in assay [12]; more than 32 µg/mL in assay [13]; more than 32 µg/mL in [14]. The MIC is 32 µg/mL in assay [15], 16 µg/mL in assay [16], more than 32 µg/mL in assay [17] and more than 32 µg/mL in assay [18].
As for LL-37 [LL37], in [1], the “Time to development of resistance (fold MIC>10)” value is on record as 9 days.
In the case of VVRVVRRVVRVVRR [SEQ ID NO: 7], the MIC in assay [3] was more than 32 µg/mL; in assay [4] it was more than 32 µg/mL; in assay [5] it was 16 µg/mL; in assay [6], more than 32 µg/mL; in assay [7] it was 16 µg/mL; in [8], more than 32 µg/mL. In addition, the MIC in assay [9], in assay [10], in assay [11], in [12], in [13] and in [14] was more than 32 µg/mL in each case. The MIC in [15] is 16 µg/mL; in assay [16], 32 µg/mL; in [17], more than 32 µg/mL; in assay [18], more than 32 µg/mL.
Take VVRVVRVVVRVVRVVVRVVRV [SEQ ID NO: 8]: the MIC was more than 32 µg/mL in [3]; more than 32 µg/mL in [4]; 16 µg/mL in assay [5]; 32 µg/mL in [6]; 0.25 µg/mL in assay [7]; 32 µg/mL in assay [8]. Moreover, the MIC in assay [9] is more than 32 µg/mL; in [10], more than 32 µg/mL; in assay [11] it was more than 32 µg/mL; in assay [12], 16 µg/mL; in assay [13], more than 32 µg/mL; in assay [14], 4 µg/mL. The MIC in assay [15] is more than 32 µg/mL; in assay [16], more than 32 µg/mL; in [17] it was 4 µg/mL; in assay [18], more than 32 µg/mL.
Consider VWRWVRRVWRWVRR [SEQ ID NO: 6], for which the MIC in assay [3] was 0.5 µg/mL; in assay [4], 0.5 µg/mL; in assay [5], 4 µg/mL; in assay [6], 0.5 µg/mL; in assay [7], 0.5 µg/mL; in [8], 0.5 µg/mL. Moreover, the MIC in assay [9] is 0.5 µg/mL; in [10], 8 µg/mL; in assay [11], 2 µg/mL; in [12] it was 8 µg/mL; in [13], 4 µg/mL; in assay [14] it was 4 µg/mL. Moreover, the MIC in assay [15] worked out at 1 µg/mL; in assay [16], 1 µg/mL; in assay [17], 2 µg/mL; in assay [18] it was 16 µg/mL.
For VWRWVRRVWRWVRRVWRWVRR [SEQ ID NO: 5], the MIC in [3] amounted to 32 µg/mL; in [4] it was 16 µg/mL; in [5] it was 32 µg/mL; in assay [6], 8 µg/mL; in [7], 8 µg/mL; in [8] it was 16 µg/mL. For the same compound, the MIC in assay [9] was 8 µg/mL; in [10], 32 µg/mL; in [11], 16 µg/mL; in [12], 16 µg/mL; in assay [13], more than 32 µg/mL; in [14], 16 µg/mL. Further, the MIC is 32 µg/mL in [15], 16 µg/mL in [16], 16 µg/mL in [17] and more than 32 µg/mL in assay [18].
